# Measurements published in patent US20200189989A1, “APPLICATION OF SYRINGIC ACID IN PROMOTING NITRIFICATION INHIBITION ACTIVITY OF DECANEDIOL” (Institute of Soil Science, Chinese Academy of Sciences, priority 2018, published 2020).
# Columns and labels:
# Assay type in all cases: cell-based
# [1] = tested on: Nitrosomonas europaea (NBRC 14298); experiment: Nitrification activity inhibition experiment, Nitrosomonas europaea (NO2- production, improved Griess method); conditions: 2 hours, 25° C., dark
# Procedure: Standard: a syringic acid standard was purchased from Sigma-Aldrich (St. Louis, Mo., USA), and the solid powder thereof was weighed and dissolved in DMSO. A 1,9-decanediol standard was purchased from WuXi AppTec, and the solid powder thereof was dissolved in DMSO while frozen over the dry ice (the 1,9-decanediol standard was a viscous liquid substance under normal temperature). Microbial strains: Nitrosomonas europaea (NBRC 14298) was purchased from Biological Resource Center, NITE, Japan. Microbial culture medium: a HEPES medium, which contained 2.5 g of (NH4)2SO4, 0.5 g of KH2PO4, 11.92 g of HEPES, 0.5 g of NaHCO3, 100 mg of MgSO4.7H2O, 5 mg of CaCl2.2H2O, and 75 mg of Fe-EDTA per 1 L liquid medium, at pH 7.8-8.0. Culture of microorganisms: Nitrosomonas europaea was inoculated in the HEPES medium and cultured at 30° C. and 200 rpm under a dark condition (aerobic), and the Nitrosomonas europaea enters a stable period 7-9 days after transfer each time. Nitrification activity inhibition experiment: The bacterial solution cultured for 7 days was collected, centrifuged at 5000 g for 20 min, and resuspended in a fresh and sterile HEPES medium until the OD600 reached about 1.0, with a concentration multiple of 40-50 times. Taken was a 1.5 mL sterile centrifuge tube, and it was sequentially added with 195 μL of sterile water, 5 μL of different concentrations of solutions of syringic acid and 1,9-decanediol in DMSO, 100 μL of the fresh and sterile HEPES medium, and 200 μL of a resuspended bacterial solution, and then cultured in a water bath at 25° C. under a dark condition for 2 hours. Then the mixed system was added with 20 μL of 0.1M Allylthiourea to terminate the nitrosification. […] of the reacted mixture was added into a 10 mL colorimetric tube, diluted to about 5 mL with deionized water, added with 1 mL of a sulfanilic acid solution, shaken well and then subjected to standing for 2-8 min, then added with 1 mL of a hydrochloric acid N-(1-naphthyl)-ethylenediamine solution, shaken well, diluted to 10 mL with water to obtain a constant volume. Deionized water was used as a reference, and the absorbances were determined at a wavelength of 540 nm. The reticle of NO2^− was made in the same manner to quantify the NO2^− generated in the sample system, and the sample inhibition rate was calculated by the following formula. This determination method was an improved Griess method, which could be referred to the national standard “determination of nitrite in the wet precipitation -N-(1-naphthyl)-1,2-diaminoethane spectrophotometry”. Nitrosification inhibition rate (%)=(1-the produced amount of NO2^− of the sample/the produced amount of NO2^− of a blank)×100%
# [2] = tested on: Nitrosomonas stercoris (NBRC 110753); experiment: Nitrification activity inhibition experiment, Nitrosomonas stercoris (NO2- production, improved Griess method); conditions: 2 hours, 25° C., dark
# Procedure: Nitrification activity inhibition experiment: The bacterial solution cultured for 7 days was collected, centrifuged at 5000 g for 20 min, and resuspended in a fresh and sterile HEPES medium until the OD600 reached about 1.0, with a concentration multiple of 40-50 times. Taken was a 1.5 mL sterile centrifuge tube, and it was sequentially added with 195 μL of sterile water, 5 μL of different concentrations of solutions of syringic acid and 1,9-decanediol in DMSO, 100 μL of the fresh and sterile HEPES medium, and 200 μL of a resuspended bacterial solution, and then cultured in a water bath at 25° C. under a dark condition for 2 hours. Then the mixed system was added with 20 μL of 0.1M Allylthiourea to terminate the nitrosification. […] of the reacted mixture was added into a 10 mL colorimetric tube, diluted to about 5 mL with deionized water, added with 1 mL of a sulfanilic acid solution, shaken well and then subjected to standing for 2-8 min, then added with 1 mL of a hydrochloric acid N-(1-naphthyl)-ethylenediamine solution, shaken well, diluted to 10 mL with water to obtain a constant volume. Deionized water was used as a reference, and the absorbances were determined at a wavelength of 540 nm. The reticle of NO2^− was made in the same manner to quantify the NO2^− generated in the sample system, and the sample inhibition rate was calculated by the following formula. This determination method was an improved Griess method, which could be referred to the national standard “determination of nitrite in the wet precipitation -N-(1-naphthyl)-1,2-diaminoethane spectrophotometry”. Nitrosification inhibition rate (%)=(1-the produced amount of NO2^− of the sample/the produced amount of NO2^− of a blank)×100% The selection and formulation of the standard were the same as those of Embodiment 1. Microbial Strains: Nitrosomonas stercoris (NBRC 110753) was purchased from Biological Resource Center, NITE, Japan. The microbial culture medium and microbial culture were the same as those of Embodiment 1. Nitrification activity inhibition experiment: The bacterial solution of Nitrosomonas stercoris cultured for 7 days was collected, centrifuged at 5000 g for 20 min, and resuspended in a fresh and sterile HEPES medium until the OD600 reached about 1.0, with a concentration multiple of 40-50 times. Taken was a 1.5 mL sterile centrifuge tube, and it was sequentially added with 195 μL of sterile water, 5 μL of different concentrations of solutions of syringic acid and 1,9-decanediol in DMSO, 100 μL of the fresh and sterile HEPES medium, and 200 μL of a resuspended bacterial solution, and then cultured in a water bath at 25° C. under a dark condition for 2 hours. Then the mixed system was added with 20 μL of 0.1M Allylthiourea to terminate the nitrosification. […]
# Nitrosomonas = experiment: Nitrosification inhibition activity of syringic acid alone and as promoter of 1,9-decanediol (summary statement)
# Excerpt: The root exudates of 19 rice varieties are collected, concentrated, and determined for their nitrosification inhibition activities by using Nitrosomonas europaea. The varieties with significant effects are further screened out from them, to select a variety of which the root exudate has a significant inhibitory effect and a variety of which the root exudate has an effect opposite to the former, and then they are subjected to GC/MS identification for components thereof. By component comparison of the two varieties, syringic acid (4-Hydroxy 3,5-dimethoxybenzoic acid, with the molecular weight of 198.18) is identified in the root exudate of the rice variety Wuyunjing 7 having a significant inhibitory effect.
SMILES,"inhibition rate for the nitrosification process of Nitrosomonas europaea ([1]; 1,9-decanediol added alone) [%]","nitrification inhibition rate ([1]; 1,9-decanediol plus syringic acid at 10 μ·mL^−1) [%]","nitrification inhibition rate ([1]; 1,9-decanediol plus syringic acid at 100 μ·mL^−1) [%]","nitrification inhibition rate ([1]; 1,9-decanediol plus syringic acid at 500 μ·mL^−1) [%]","inhibition rate (nitrification inhibition effect on Nitrosomonas stercoris) ([2]; 1,9-decanediol plus 10 μg·mL^−1 of syringic acid) [%]","inhibition rate (nitrification inhibition effect on Nitrosomonas stercoris) ([2]; 1,9-decanediol plus 100 μg·mL^−1 of syringic acid) [%]","inhibition rate (nitrification inhibition effect on Nitrosomonas stercoris) ([2]; 1,9-decanediol plus 500 μg·mL^−1 of syringic acid) [%]","inhibition rate (nitrification inhibition effect on Nitrosomonas stercoris) ([2]; 1,9-decanediol without syringic acid) [%]",inhibitory activity to the Nitrosomonas (Nitrosomonas; syringic acid alone),"effect concentration for promoting the inhibition of 1,9-decanediol to the nitrosification activity of the Nitrosomonas (Nitrosomonas; syringic acid combined with 1,9-decanediol) [µg/mL]"
"CC(O)CCCCCCCCO (stereo not shown) [1,9-decanediol]",41.2,51.7,61.1,69.2,60.5,70.2,89.9,51.5,,
"COc1cc(C(=O)O)cc(OC)c1O [syringic acid, 4-Hydroxy 3,5-dimethoxybenzoic acid]",,,,,,,,,no significant inhibitory activity,10 to 500
